From patent US8455491B2, “6-cycloamino-3-(pyridazin-4-yl)imidazo[1,2-b]pyridazine and derivatives and pharmaceutical compositions comprising the same” (Sanofi, priority 2007, dated 2013)

How the values were obtained:
[1] = biological target: T1, casein kinase 1 epsilon (CK1 epsilon) (Homo sapiens, UniProt P49674); assay: Filter-plate assay of ATP-33P, inhibition of casein phosphorylation by CK1 epsilon; type: biochemical; details: casein substrate, ATP 10 μM, 2 hours at ambient temperature
T1 construct: Invitrogen Corporation (named as alternative)
Protocol: The capacity of the compounds of the invention to inhibit the phosphorylation of casein by casein kinase 1 epsilon and delta may be evaluated according to the procedure described in US 2005/0131012.
Filter-Plate Assay of ATP-^33P for the Screening of CK1 Epsilon Inhibitors:
The effect of the compounds on inhibition of the phosphorylation of casein by the enzyme casein kinase 1 epsilon (CK1 epsilon) is measured, using a casein assay with filtration of ATP-^33P in vitro.
Casein kinase 1 epsilon (0.58 mg/ml) is obtained via fermentation and purification processes performed according to methods that are well known to those skilled in the art, or may also be obtained from Invitrogen Corporation™ (human CK1 epsilon).
The compounds are tested at five different concentrations so as to generate IC50 values, i.e. the concentration at which a compound is capable of inhibiting the enzymatic activity by 50%, or alternatively the percentage of inhibition at a concentration of 10 micromolar.
“U”-bottomed Falcon plates are prepared by placing 5 μL of solutions of the compounds according to the invention at concentrations of 10, 1, 0.1, 0.01 or 0.001 μM in various wells. The solutions of the compounds according to the invention at these various concentrations are prepared by diluting in a test buffer (50 mM Tris, pH 7.5, […], 2 mM DTT and 1 mM EGTA) a stock solution in DMSO at a concentration of 10 mM. Next, 5 μL of dephosphorylated casein are added to a final concentration of 0.2 μg/μL, 20 μl of CK1 epsilon to a final concentration of 3 ng/μl, and 20 μl of ATP-^33P to a final concentration of 0.02 μCi/μl mixed with cold ATP (10 μM final—approximately 2×10^6 CPM per well). The final total test volume per well is equal to 50 μl.
The “U”-bottomed Falcon® test plate mentioned above is vortexed, and then incubated at ambient temperature for 2 hours. After 2 hours, the reaction is stopped by adding an ice-cold solution of 65 μl of ATP (2 mM) prepared in test buffer.
100 μl of the reaction mixture are then transferred from the “U”-bottomed Falcon® plate into Millipore® MAPH filter plates, preimpregnated with 25 μl of ice-cold 100% TCA. […]
The plates are left to dry overnight at ambient temperature. […] The radiation emitted by each well is then measured for 2 minutes in a Packard® Topcount NXT scintillation counter, in which the values of CPM/well are measured.
The percentage inhibition of the capacity of the enzyme to phosphorylate the substrate (casein) is determined for each concentration of compound tested. These inhibition data expressed as percentages are used to calculate the IC50 value for each compound compared with the controls.
The kinetic studies determined the KM value for ATP as being 21 μM in this test system.

[2] = tested on: Mper1-luc Rat-1 (P2C4) fibroblasts; assay: Circadian cell assay (mPer1-luciferase reporter, period prolongation); type: cell-based; details: effective concentration that induced a 1-hour prolongation of the circadian period, interpolated from hyperbolic curve
Protocol: Experimental Protocols for Circadian Cell Assay
Mper1-luc Rat-1 (P2C4) fibroblast cultures were prepared by dividing the cultures every 3-4 days (approximately 10-20% of confluence) on 150 cm^2 degassed polystyrene tissue culture flasks (Falcon® #35-5001) and maintained in growth medium [EMEM (Cellgro #10-010-CV); 10% fetal bovine serum (FBS; Gibco #16000-044); and 50 I.U./ml of penicillin-streptomycin (Cellgro #30-001-CI)] at 37° C. and under 5% CO2.
Cells obtained from Rat-1 fibroblast cultures at 30-50% of confluence as described above were co-transfected with vectors containing the selection marker for resistance to zeocin for a stable transfection and a luciferase reporter gene controlled by the mPer-1 promoter. After 24 to 48 hours, the cultures were divided on 96-well plates and maintained in growth medium supplemented with 50-100 μg/ml of zeocin (Invitrogen® #45-0430) for 10-14 days. The zeocin-resistant stable transfectants were evaluated for the expression of the reporter by adding 100 μM lucerfin (Promega® #E1603®) to the growth medium and by assaying the luciferase activity on a TopCount® scintillation counter (Packard Model #C384V00). The Rat-1 cell clones expressing both zeocin resistance and lucerifase activity controlled by mPer1 were serum-shock synchronized with 50% horse serum [HS (Gibco® #16050-122)] and the activity of the circadian reporter was evaluated. The P2C4 clone of Mper1-luc Rat-1 fibroblasts was selected to test the compound.
Mper1-luc Rat-1 (P2C4) fibroblasts at 40-50% of confluence, obtained according to the protocol described above, were plated out onto 96-well opaque tissue culture plates (Perkin Elmer® #6005680). The cultures are maintained in growth medium supplemented with 100 μg/ml of zeocin (Invitrogen #45-0430) until they reach 100% of confluence (48-72 h). The cultures were then synchronized with 100 μl of synchronization medium [EMEM (Cellgro #10-010-CV); 100 I.U./ml of penicillin-streptomycin (Cellgro #30-001-C1); 50% HS (Gibco #16050-122)] for 2 hours at 37° C. and under 5% CO2. After synchronization, the cultures were rinsed with 100 μl of EMEM (Cellgro #10-010-CV) for 10 minutes at ambient temperature. […]
The period analysis was performed either by determining the interval between the relative light emission minima over several days or by Fourier transform. […] The data were analyzed by adjusting a hyperbolic curve to the data expressed as change of period (y-axis) as a function of the concentration of the test compound (x-axis) in the XLfit™ software and the CE Delta (t+1 h) was interpolated from this curve.

human CK1 delta = biological target: T2, human CK1 delta (Homo sapiens, UniProt P48730); assay: FRET fluorescence test (Z'Lyte kinase assay Kit), CK1 delta; type: biochemical; details: peptide substrate SER/THR 11 2 μM, ATP 4 times the KM
T2 construct: purchased Invitrogen Corporation PV3665
Text: The capacity of the compounds of the invention to inhibit the phosphorylation of casein by casein kinase 1 epsilon and delta may be evaluated using a FRET (“Fluorescence Resonance Energy Transfer) fluorescence test with the aid of the “Z′Lyte™ kinase assay Kit” (reference PV3670; Invitrogen Corporation™) according to the manufacturer's instructions.
The casein kinases 1 used are obtained from Invitrogen Corporation (human CK1 epsilon PV3500 and human CK1 delta PV3665).
A peptide substrate, labeled at both ends with a fluorophore donor group (coumarin) and a fluorophore acceptor group ([…]) constituting a FRET system is phosphorylated in the presence of ATP by casein kinase 1 epsilon or delta in the presence increasing concentrations of compounds of the invention. The mixture is treated with a site-specific protease that specifically cleaves the peptide substrate to form two fluorescent fragments having a large fluorescence emission ratio.
The fluorescence observed is thus related to the capacity of the products of the invention to inhibit the phosphorylation of the peptide substrate by casein kinase 1 epsilon or casein kinase 1 delta.
The compounds of the invention are dissolved at different concentrations starting with a 10 mM stock solution in DMSO diluted in a buffer containing 50 mM HEPS, pH 7.5, 1 m MEGTA, 0.01% Brij-35, 10 mM MgCl for casein kinase 1 epsilon and supplemented with Trizma Base (50 mM), pH 8.0, and NaN3 (0.01% final) for casein kinase 1 delta.
The phosphorylation of the peptide substrate SER/THR 11 obtained from Invitrogen Corporation™ is performed at a final concentration of 2 μM. The ATP concentration is 4 times the KM, this value being 2 μM for casein kinase 1 epsilon and 4 μM for casein kinase 1 delta.
The emitted fluorescence is measured at wavelengths of 445 and 520 nm (excitation at 400 nm).

T2 sequence (P48730 whole entry): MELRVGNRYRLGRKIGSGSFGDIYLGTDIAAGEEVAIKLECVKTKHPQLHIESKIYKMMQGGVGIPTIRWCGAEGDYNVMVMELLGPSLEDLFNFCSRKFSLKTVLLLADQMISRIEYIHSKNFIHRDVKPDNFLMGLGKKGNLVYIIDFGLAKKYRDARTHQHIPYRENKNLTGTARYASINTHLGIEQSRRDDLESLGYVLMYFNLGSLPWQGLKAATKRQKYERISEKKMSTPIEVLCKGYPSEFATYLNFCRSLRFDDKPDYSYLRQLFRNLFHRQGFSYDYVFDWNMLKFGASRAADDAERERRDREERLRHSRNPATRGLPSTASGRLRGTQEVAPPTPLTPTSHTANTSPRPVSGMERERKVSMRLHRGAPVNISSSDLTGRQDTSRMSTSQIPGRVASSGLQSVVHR
T1 sequence (P49674 whole entry): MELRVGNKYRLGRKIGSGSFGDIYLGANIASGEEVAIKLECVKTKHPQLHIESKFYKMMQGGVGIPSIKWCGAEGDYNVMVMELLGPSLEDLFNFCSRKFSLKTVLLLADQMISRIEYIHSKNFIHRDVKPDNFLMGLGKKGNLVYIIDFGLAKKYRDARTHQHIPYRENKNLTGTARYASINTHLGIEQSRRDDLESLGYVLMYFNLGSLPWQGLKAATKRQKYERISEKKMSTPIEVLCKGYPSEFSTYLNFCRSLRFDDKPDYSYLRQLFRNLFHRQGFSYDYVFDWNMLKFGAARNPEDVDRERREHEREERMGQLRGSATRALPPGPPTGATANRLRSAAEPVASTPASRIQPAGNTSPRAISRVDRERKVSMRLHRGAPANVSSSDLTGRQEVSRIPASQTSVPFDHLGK

Structure (SMILES) | melting point | IC50 [1] | IC50 (human CK1 delta) | CE Delta (t + 1 h) [2]
C[C@@H]1CN(c2ccc3nc(-c4ccc(F)cc4)c(-c4ccnnc4)n3n2)CCN1 [Compound No. 2, 2-(4-fluorophenyl)-6-((R)-3-methylpiperazin-1-yl)-3-(pyridazin-4-yl)imidazo[1,2-b]pyridazine] | – | – | – | 164 nM
CC(C)N1CCN(c2ccc3nc(-c4ccc(F)c(F)c4)c(-c4ccnnc4)n3n2)CC1 [compound 14, 2-(3,4-difluorophenyl)-6-(4-isopropylpiperazin-1-yl)-3-pyridazin-4-yl-imidazo[1,2-b]pyridazine] | 192 to 194 °C | – | – | 62 nM

The next lines start with results.

melting point | IC50 [1] | IC50 (human CK1 delta) | Structure (SMILES) | CE Delta (t + 1 h) [2]
205 to 212 °C | 98 nM | – | OCC1CN(c2ccc3nc(-c4ccc(F)cc4)c(-c4ccnnc4)n3n2)CCN1 (racemic) [compound 39, (+/−)-{4-[2-(4-fluorophenyl)-3-pyridazin-4-ylimidazo[1,2-b]pyridazin-6-yl]piperazin-2-yl}methanol] | 178 nM
– | – | 1 nM | Fc1ccc(-c2nc3ccc(N4CCNCC4)nn3c2-c2ccnnc2)cc1 [Compound No. 1, 2-(4-fluorophenyl)-6-(piperazin-1-yl)-3-(pyridazin-4-yl)imidazo[1,2-b]pyridazine] | –
– | – | 50 to 65 nM | CC(C)N1CCN(c2ccc3nc(-c4ccc(F)cc4)c(-c4ccnnc4)n3n2)CC1 [Compound No. 11, 2-(4-fluorophenyl)-6-(4-isopropyl-piperazin-1-yl)-3-(pyridazin-4-yl)imidazo[1,2-b]pyridazine] | –
